The results in this text go back to PubChem BioAssay (NCI).

The structures appear in SMILES notation. “And” between values parts separate entries of the source, which are not always exact repeats. Equal values may be shown once.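 Following 48 hours of exposure in 96-well plates, responses at five concentrations were used to interpolate endpoints linearly. Abbreviation: GI50, concentration required for 50% inhibition of growth. TGI: total growth inhibition.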 Bounds are passed on as bounds.

Some test systems named below: NCI-H460 lung; IGROV1 ovarian; CAKI-1 renal; MDA-MB-435; HCT-116 colon; NCI/ADR-RES ovarian; DU-145 prostate; LOX IMVI melanoma; PC-3 prostate; NCI-H23 lung.
Experiment in all cases: growth of human tumour cells (NCI), 48 h

Turning to `CC(=O)/C(=C\c1c(-c2ccccc2)[nH]c2ccccc12)S(=O)(=O)c1ccccc1`, the GI50 in the assay with NCI-H460 lung was 1040 nM; in the assay with IGROV1 ovarian it was 1510 nM; in the assay with CAKI-1 renal, 2430 nM; in the assay on MDA-MB-435, 295 nM; with HCT-116 colon, 727 nM; with NCI/ADR-RES ovarian, 513 nM. Also, the GI50 is 2940 nM with DU-145 prostate, 1390 nM in the assay with LOX IMVI melanoma, 2440 nM in the assay on PC-3 prostate and 1480 nM in the assay with NCI-H23 lung. For the same molecule, the TGI in the assay with NCI-H460 lung stood at 2680 nM; in the assay with IGROV1 ovarian it was 4370 nM; with CAKI-1 renal it was 10600 nM; in the assay on MDA-MB-435, 4140 nM; with HCT-116 colon, 2000 nM; in the assay on NCI/ADR-RES ovarian, 5620 nM. The TGI with DU-145 prostate was 9310 nM; in the assay with LOX IMVI melanoma, 3270 nM; in the assay with PC-3 prostate it was 15000 nM; in the assay on NCI-H23 lung, 5520 nM.

With `Cc1cc(O)cc(C)c1/C=C/c1cncc(C(=O)OC(C)(C)C)c1`, the GI50 in the assay with NCI-H460 lung was 13500 nM; in the assay with IGROV1 ovarian it was 13200 nM; in the assay on CAKI-1 renal, 12300 nM; in the assay on MDA-MB-435, 11600 nM; in the assay with HCT-116 colon it was 14100 nM; with NCI/ADR-RES ovarian it was 14600 nM. Further, the GI50 with DU-145 prostate is 17000 nM; in the assay on LOX IMVI melanoma it was 16000 nM; in the assay on PC-3 prostate, 10400 nM; in the assay on NCI-H23 lung it was more than 20000 nM. Besides, the TGI in the assay with NCI-H460 lung, with IGROV1 ovarian, in the assay on CAKI-1 renal, in the assay with MDA-MB-435, in the assay on HCT-116 colon and with NCI/ADR-RES ovarian was more than 25000 nM each time. Also, the TGI with DU-145 prostate, in the assay with LOX IMVI melanoma, with PC-3 prostate and with NCI-H23 lung was more than 25000 nM in each case.

Turning to `Cc1ccc(C(=O)N=Nc2c(O)[nH]c3ccc(Cl)cc23)cc1`, the GI50 is 15100 nM in the assay on NCI-H460 lung; 36600 nM in the assay on IGROV1 ovarian; 16100 nM in the assay on CAKI-1 renal; 13000 nM in the assay on MDA-MB-435; 10400 nM in the assay with HCT-116 colon; more than 50000 nM in the assay on NCI/ADR-RES ovarian. The GI50 with DU-145 prostate was 46900 nM; with LOX IMVI melanoma, 31200 nM; with PC-3 prostate it was 25900 nM; with NCI-H23 lung, 16900 nM. Further, the TGI is more than 50000 nM in the assay with NCI-H460 lung; more than 50000 nM with IGROV1 ovarian; 45300 nM in the assay with CAKI-1 renal; 40600 nM in the assay with MDA-MB-435; more than 50000 nM with HCT-116 colon; more than 50000 nM in the assay on NCI/ADR-RES ovarian. For the same molecule, the TGI in the assay on DU-145 prostate, in the assay with LOX IMVI melanoma, in the assay on PC-3 prostate and in the assay on NCI-H23 lung was more than 50000 nM in each case.

With `CN1CCN(c2ccc(C(=O)Nc3cccc(C#Cc4cccc5[nH]nc(N)c45)c3)cc2C(F)(F)F)CC1`, the GI50 in the assay on NCI-H460 lung was 701 nM; with IGROV1 ovarian, 716 nM; in the assay on CAKI-1 renal it was 668 nM; in the assay with MDA-MB-435 it was 610 nM; in the assay with HCT-116 colon, 525 nM; in the assay on NCI/ADR-RES ovarian it was 990 nM. In addition, the GI50 is 1080 nM in the assay with DU-145 prostate, 590 nM in the assay on LOX IMVI melanoma, 953 nM with PC-3 prostate and 1790 nM in the assay with NCI-H23 lung. Besides, the TGI worked out at 1500 nM with NCI-H460 lung; 1920 nM with IGROV1 ovarian; 1510 nM in the assay with CAKI-1 renal; 1190 nM in the assay with MDA-MB-435; 1040 nM in the assay on HCT-116 colon; 2820 nM in the assay with NCI/ADR-RES ovarian. For the same molecule, the TGI with DU-145 prostate came to 3200 nM; in the assay with LOX IMVI melanoma, 1080 nM; with PC-3 prostate it was 7920 nM; in the assay on NCI-H23 lung it was 6120 nM.

Take `CN(C)c1ccc(C(=C2C=CC(=[N+](C)C)C=C2)c2ccccc2Cl)cc1`: the GI50 is 245 nM in the assay on NCI-H460 lung; 365 nM with IGROV1 ovarian; 455 nM in the assay on CAKI-1 renal; 309 nM in the assay with MDA-MB-435; 155 nM with HCT-116 colon; 1890 nM in the assay with NCI/ADR-RES ovarian. Further, the GI50 with DU-145 prostate is 374 nM; in the assay with LOX IMVI melanoma it was 224 nM; in the assay on PC-3 prostate, 242 nM; in the assay on NCI-H23 lung, 282 nM. The TGI in the assay on NCI-H460 lung worked out at 804 nM; in the assay with IGROV1 ovarian, 1340 nM; in the assay with CAKI-1 renal, 2760 nM; in the assay on MDA-MB-435, 1110 nM; in the assay on HCT-116 colon, 605 nM; with NCI/ADR-RES ovarian, 14800 nM. Besides, the TGI in the assay with DU-145 prostate stood at 1310 nM; in the assay on LOX IMVI melanoma, 836 nM; in the assay on PC-3 prostate, 995 nM; in the assay on NCI-H23 lung, 1280 nM.

For the molecule `CCCC#CCOC(=O)c1cc([N+](=O)[O-])cc([N+](=O)[O-])c1`, the TGI in the assay with NCI-H460 lung, in the assay on IGROV1 ovarian, in the assay with CAKI-1 renal, in the assay with MDA-MB-435, in the assay on HCT-116 colon and in the assay on NCI/ADR-RES ovarian was more than 100000 nM each time. Besides, the TGI with DU-145 prostate, in the assay with LOX IMVI melanoma, with PC-3 prostate and with NCI-H23 lung was more than 100000 nM each time.

On to `O=C1N[C@H]2[C@H](O)[C@H](O)[C@@H](O)[C@H](O)[C@@H]2c2cc3c(c(O)c21)OCO3`, for which the GI50 with NCI-H460 lung was 234 nM and 84 nM; in the assay with IGROV1 ovarian, 349 nM and 757 nM; with CAKI-1 renal it was 682 nM; with MDA-MB-435 it was 24.9 nM; in the assay on HCT-116 colon, 129 nM and 253 nM; in the assay with NCI/ADR-RES ovarian it was 24.1 nM. In addition, the GI50 was 10.1 nM in the assay on DU-145 prostate; 147 nM and 196 nM in the assay with LOX IMVI melanoma; 38.1 nM and 66.1 nM in the assay with PC-3 prostate; 241 nM and 375 nM in the assay on NCI-H23 lung. Moreover, the TGI in the assay on NCI-H460 lung is 652 nM and 448 nM; in the assay on MDA-MB-435, 1300 nM and 140 nM; with HCT-116 colon, 682 nM and 1420 nM and 144 nM; in the assay with NCI/ADR-RES ovarian, 189 nM and 523 nM; with DU-145 prostate, 96.3 nM and 102 nM; in the assay on PC-3 prostate, 787 nM and 480 nM. In addition, the TGI in the assay on NCI-H23 lung is 712 nM and 2180 nM and 677 nM.

In the case of `CC1(C)N=C(N)N=C(N)N1c1ccc(Cl)c(Cl)c1`, the GI50 is 91.9 nM in the assay on NCI-H460 lung; 356 nM with IGROV1 ovarian; 12500 nM with CAKI-1 renal; 64.4 nM in the assay on MDA-MB-435; 54.9 nM in the assay on HCT-116 colon; 43000 nM with NCI/ADR-RES ovarian. In addition, the GI50 in the assay with DU-145 prostate was 523 nM; with LOX IMVI melanoma it was 87.9 nM; with PC-3 prostate it was 157 nM; in the assay on NCI-H23 lung, 453 nM. Besides, the TGI with NCI-H460 lung, with IGROV1 ovarian, with CAKI-1 renal, in the assay on MDA-MB-435, with HCT-116 colon and with NCI/ADR-RES ovarian was more than 100000 nM in each case. Moreover, the TGI in the assay with DU-145 prostate, in the assay on LOX IMVI melanoma, in the assay on PC-3 prostate and with NCI-H23 lung was more than 100000 nM throughout.
